Experimental data: paper PMC9739877, “Discovery and Mechanistic Investigation of Piperazinone Phenylalanine Derivatives with Terminal Indole or Benzene Ring as Novel HIV-1 Capsid Modulators” (Molecules, 2022)

How the values were obtained:
[1] = human, microsomes
HIV-2 (ROD) = assay: Anti-HIV-2 (ROD) activity in MT-4 cells, MTT assay; type: cell-based; details: Human immunodeficiency virus 2, MT4, 50% protection against HIV-induced cytotoxicity
Experimental: (§1) II. In vitro anti-HIV Assay in MT-4 Cells
(§2) Evaluation of the antiviral activity of the compounds against HIV in MT-4 cells was performed using the MTT assay as described below. Stock solutions (10 × final concentration) of test compounds were added in 25 µL volumes to two series of triplicate wells to allow simultaneous evaluation of their effects on mock- and HIV-infected cells at the beginning of each experiment. Serial 5-fold dilutions of test compounds were made directly in flat-bottomed 96-well microtiter trays using a Biomek 3000 robot (Beckman Instruments, Fullerton, CA). Untreated HIV- and mock-infected cell samples were included as controls. HIV stock (50 µL) at 100-300 CCID50 (50 % cell culture infectious doses) or culture medium was added to either the infected or mock-infected wells of the microtiter tray. Mock-infected cells were used to evaluate the effects of the test compound on uninfected cells to assess the test compounds' cytotoxicity. Exponentially growing MT-4 cells were centrifuged for 5 minutes at 220 g, and the supernatant was discarded. […]
(§3) cells/mL, and 50 µL volumes were transferred to the microtiter tray wells. Five days after infection, the viability of mock-and HIV-infected cells was examined spectrophotometrically using the MTT assay. The MTT assay is based on the reduction of yellow colored 3-(4,5-dimethylthiazol-2-yl)-2,5-diphenyltetrazolium bromide (MTT) (Acros Organics) by mitochondrial dehydrogenase activity in metabolically active cells to a blue-purple formazan that can be measured spectrophotometrically. The absorbances were read in an eight-channel computer-controlled photometer (Infinite M1000, Tecan), at two wavelengths (540 and 690 nm). All data were calculated using the median absorbance value of three wells. […]
(§4) was defined as the concentration of the test compound that reduced the absorbance (OD540) of the mock-infected control sample by 50%. The concentration achieving 50% protection against the cytopathic effect of the virus in infected cells was defined as the […]

HIV-1 CA monomer = molecular target: T1, HIV-1 CA monomer (Human immunodeficiency virus type 1 group M subtype B, UniProt P12493); assay: biochemical; type: binding; details: SPR
T1 construct: a vector containing C-terminally His-tagged HIV-1NL4-3CA; His6 (CA-H6) (C); made in house; host or cells: E. coli BL21-Codon Plus (DE3)-RIL

HIV-1 (IIIB) = assay: microbe, parasite or virus in culture; type: cell-based; details: Human immunodeficiency virus 1, MT4, 50% protection against HIV-induced cytotoxicity, MT-4 cells, MTT
Experimental: as §1, §2, §3, §4

in vitro [2] = details: both, human, plasma
HIV-1 CA hexamer = HIV-1 CA hexamer (Human immunodeficiency virus type 1 group M subtype B, UniProt P12493, A146C/E177C/M317A/W316A); assay: SPR binding to disulfide-stabilized hexameric HIV-1 CA
MT-4 cells = assay: Cytotoxicity in mock-infected MT-4 cells, MTT assay; type: cell-based; details: 50% reduction of viability of mock-infected MT-4 cells
Experimental: (§5) II. In vitro anti-HIV Assay in MT-4 Cells […]
(§6) performed using the MTT assay as described below. Stock solutions (10 × final concentration) of test compounds were added in 25 µL volumes to two series of […]
(§7) infected cells at the beginning of each experiment. Serial 5-fold dilutions of test […]
(§8) Biomek 3000 robot (Beckman Instruments, Fullerton, CA). Untreated HIV- and mock-infected cell samples were included as controls. HIV stock (50 µL) at 100-300 CCID50 […]
(§9) or mock-infected wells of the microtiter tray. Mock-infected cells were used to evaluate […]
(§10) cytotoxicity. Exponentially growing MT-4 cells were centrifuged for 5 minutes at 220 g, and the supernatant was discarded. […]
(§11) cells/mL, and 50 µL volumes were transferred to the microtiter tray wells. Five days […]
(§12) spectrophotometrically using the MTT assay. The MTT assay is based on the reduction […]
(§13) M1000, Tecan), at two wavelengths (540 and 690 nm). All data were calculated using the median absorbance value of three wells.
(§14) (OD540) of the mock-infected control sample by 50%. The concentration achieving 50%

in vitro [3] = details: human, microsomes
[4] = Cytotoxicity in mock-infected MT-4 cells, MTT assay; type: cell-based; details: human, 50% reduction of viability of mock-infected MT-4 cells
Experimental: as §5, §6, §7, §8, §9, §10, §11, §12, §13, §14

With O=C(O)Cc1ccccc1Nc1c(Cl)cccc1Cl [Diclofenac, diclofenac] the “CLint(liver)” value [1] was 334.8 mL/min/kg, the “CLint(mic)” value [1] was 372.0 µL/min/mg and the T1/2 [1] was 3.7 min.

For COc1ccc(N(C)C(=O)[C@H](Cc2cc(F)cc(F)c2)NC(=O)CN2CCN(C(=O)Cc3c[nH]c4ccc(F)cc34)CC2=O)cc1 [F2-7f, (S)-3-(3,5-difluorophenyl)-2-(2-(4-(2-(5-fluoro-1H-indol-3-yl)acetyl)-2-oxopiperazin-1-yl)acetamido)-N-(4-methoxyphenyl)-N-methylpropanamide], the EC50 (HIV-2 (ROD)) was 5.07 ± 0.63 µM, the “Remaining (NCF = 60 min)” value ([1]; 1 h, 1 μM) was 103.5% and the “Remaining (T = 60 min)” value ([1]; 1 h, 1 μM) was 0.0%. The Kd (HIV-1 CA monomer) was 16.1 ± 1.32 µM, the EC50 (HIV-1 (IIIB)) was 5.89 ± 2.03 µM and the half-life at 2 μM (in vitro [2]) was over 289 min. It also gave a remaining at 0 h, 2 μM (in vitro [2]) of 100%, a remaining at 10 min, 2 μM (in vitro [2]) of 98% and a remaining at 0.5 h, 2 μM (in vitro [2]) of 97.8%. It also gave a remaining at 1 h, 2 μM (in vitro [2]) of 90.9%, a remaining at 2 h, 2 μM (in vitro [2]) of 86.9% and a Kd (HIV-1 CA hexamer) of 7.2 ± 1.1 µM. For the same compound, the “koff times higher than that of PF74” value (HIV-1 CA hexamer; CA hexamers) was “approximately 8.5 times”, the “Ratio KD Monomer/KD Hexamer” value (HIV-1 CA hexamer; SPR) was 2.230 and the “koff Hexamer” value (HIV-1 CA hexamer; off-rate measured for HIV-1 CA hexamer) was 0.151 ± 0.028 s⁻¹. It also gave a CC50 (MT-4 cells) of 16.4 ± 3.38 µM, a CLint scaled at 1 μM (in vitro [3]) of 2480 mL/min/kg and a half-life at 1 μM (in vitro [3]) of 0.5 min. For the same compound, the microsomal CLint at 1 μM (in vitro [3]) was 2760 µL/min/mg.

Work on COc1ccc(N(C)C(=O)[C@H](Cc2cc(F)cc(F)c2)NC(=O)CN2CCN(C(=O)c3ccc(NS(C)(=O)=O)cc3)CC2=O)cc1 [F2-7h, (S)-3-(3,5-difluorophenyl)-N-(4-methoxyphenyl)-N-methyl-2-(2-(4-(4-(methylsulfonamido)benzoyl)-2-oxopiperazin-1-yl)acetamido)propenamide] yielded an EC50 (HIV-2 (ROD)) of 183 ± 2.77 µM, an EC50 (HIV-1 (IIIB)) of 161 ± 15.4 µM and a CC50 at 5 days [4] of over 190 µM.
